SMILES strings stand for the structures. “Also recorded” adds a separate entry of the source. Like-named read-outs stand apart in the source and are kept apart here.

Assay [1] concerns the target T1, jack bean urease (Canavalia ensiformis, UniProt P07374). Briefly: Antiurease assay. Format: biochemical. The following applies: for % inhibition (urease): inhibitor concentration not given.
The target of assay [2] is T1, jack bean urease. Briefly: Enzyme kinetic studies. The following applies: for Vmax (app): at an inhibitor concentration of 20 μM; for mode of inhibition: urease, Lineweaver–Burk plots. Format: biochemical.

T1 sequence (P07374 whole entry, looked up): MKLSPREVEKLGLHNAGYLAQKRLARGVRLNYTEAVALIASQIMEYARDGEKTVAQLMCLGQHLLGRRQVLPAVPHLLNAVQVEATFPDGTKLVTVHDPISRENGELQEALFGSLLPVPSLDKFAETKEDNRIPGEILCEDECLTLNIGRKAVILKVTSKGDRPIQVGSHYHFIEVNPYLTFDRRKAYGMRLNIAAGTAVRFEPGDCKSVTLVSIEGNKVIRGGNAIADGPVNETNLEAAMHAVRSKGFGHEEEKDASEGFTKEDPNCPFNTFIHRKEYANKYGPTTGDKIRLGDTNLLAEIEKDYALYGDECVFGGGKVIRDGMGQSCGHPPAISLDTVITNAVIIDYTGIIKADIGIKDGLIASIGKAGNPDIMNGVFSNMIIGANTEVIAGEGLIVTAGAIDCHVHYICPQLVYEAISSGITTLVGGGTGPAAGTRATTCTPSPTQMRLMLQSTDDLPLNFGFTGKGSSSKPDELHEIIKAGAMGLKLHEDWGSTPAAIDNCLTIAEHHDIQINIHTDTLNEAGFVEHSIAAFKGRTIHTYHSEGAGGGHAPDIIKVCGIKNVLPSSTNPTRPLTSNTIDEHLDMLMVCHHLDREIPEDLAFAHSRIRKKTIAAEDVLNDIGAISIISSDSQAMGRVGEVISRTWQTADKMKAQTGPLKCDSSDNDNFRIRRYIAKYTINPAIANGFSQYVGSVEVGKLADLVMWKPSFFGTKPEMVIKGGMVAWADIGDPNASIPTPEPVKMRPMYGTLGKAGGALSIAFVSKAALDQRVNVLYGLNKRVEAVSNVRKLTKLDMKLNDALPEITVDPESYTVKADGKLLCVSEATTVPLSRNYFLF

Take `Cc1noc(NS(=O)(=O)c2ccc(NC(=O)Cc3ccccc3Nc3c(Cl)cccc3Cl)cc2)c1C` [conjugate 5, 2-(2-((2,6-Dichlorophenyl)amino)phenyl)-N-(4-(N-(3,4-dimethylisoxazol-5-yl)sulfamoyl)phenyl)acetamide]: the IC50 (as a rule, the midpoint of a concentration-inhibition curve) at jack bean urease [1] amounted to 23.1 ± 0.49 µM. Besides, the “% inhibition (urease)” value at jack bean urease [1] (jack bean urease) was 73.4%.
On to `O=C(Cc1ccccc1Nc1c(Cl)cccc1Cl)Nc1ccc(S(=O)(=O)Nc2nccs2)cc1` [conjugate 6, 2-(2-((2,6-Dichlorophenyl)amino)phenyl)-N-(4-(N-(thiazol-2-yl)sulfamoyl)phenyl)acetamide], for which, on jack bean urease [2], affinity was put at a Ki of 16.3 µM, the “Vmax (app)” value stood at 0.755 µM/min and the mode of inhibition entry was “mixed”. The same molecule displayed an IC50 against jack bean urease [1] of 16.2 ± 0.21 µM. For the same molecule, the “% inhibition (urease)” value at jack bean urease [1] (jack bean urease) came to 71.3%.
`O=C(Cc1ccccc1Nc1c(Cl)cccc1Cl)Nc1ccc(S(=O)(=O)Nc2ncccn2)cc1` [conjugate 7, 2-(2-((2,6-Dichlorophenyl)amino)phenyl)-N-(4-(N-(pyrimidin-2-yl)sulfamoyl)phenyl)acetamid] showed an IC50 against jack bean urease [1] of 30.49 ± 0.28 µM. For the same molecule, on jack bean urease [1] (jack bean urease), the “% inhibition (urease)” value is listed as 83.6%.
As for `Cc1ccnc(NS(=O)(=O)c2ccc(NC(=O)Cc3ccccc3Nc3c(Cl)cccc3Cl)cc2)n1` [conjugate 8, 2-(2-((2,6-Dichlorophenyl)amino)phenyl)-N-(4-(N-(4-methylpyrimidin-2-yl)sulfamoyl)phenyl)acetamide], on jack bean urease [2], the Ki – broadly, a dissociation constant, usually derived from enzyme kinetics or from competition with a known ligand – was 10.8 µM; the “Vmax (app)” value came out at 2.27 µM/min; the mode of inhibition result is reported as “mixed”. Further, the IC50 on jack bean urease [1] is 9.5 ± 0.28 µM. Moreover, at jack bean urease [1] (jack bean urease), the “% inhibition (urease)” value was found to be 85.9%.
At jack bean urease [1], `Cc1cc(NS(=O)(=O)c2ccc(NC(=O)Cc3ccccc3Nc3c(Cl)cccc3Cl)cc2)no1` [conjugate 9, 2-(2-((2,6-Dichlorophenyl)amino)phenyl)-N-(4-(N-(5-methylisoxazol-3-yl)sulfamoyl)phenyl)acetamide] showed an IC50 of 33.34 ± 0.21 µM. On jack bean urease [1] (jack bean urease), the “% inhibition (urease)” value turned out to be 77.3%.
Take `CC(=O)NS(=O)(=O)c1ccc(NC(=O)Cc2ccccc2Nc2c(Cl)cccc2Cl)cc1` [conjugate 10, N-(4-(N-Acetylsulfamoyl)phenyl)-2-(2-((2,6-dichlorophenyl)amino)phenyl)acetamide]: on jack bean urease [2], the affinity, expressed as Ki, was 2.73 µM; the “Vmax (app)” value is 3.46 µM/min; the mode of inhibition result is “competitively; also recorded: competitive”. For the same molecule, it took 5.49 ± 0.34 µM to reach half-maximal inhibition at jack bean urease [1] (IC50). Also, on jack bean urease [1] (jack bean urease), the “% inhibition (urease)” value stood at 84.5%.
In the same order, the values of `N=C(N)NS(=O)(=O)c1ccc(NC(=O)Cc2ccccc2Nc2c(Cl)cccc2Cl)cc1` [conjugate 11, N-(4-(N-Carbamimidoylsulfamoyl)phenyl)-2-(2-((2,6-dichlorophenyl)amino)phenyl)acetamide] are 1.09 µM, 1.11 µM/min, “mixed”, 4.35 ± 0.23 µM and 78.7%.
Take `Cc1cccc(Nc2ccccc2C(=O)Nc2ccc(S(N)(=O)=O)cc2)c1C` [conjugate 12, 2-((2,3-Dimethylphenyl)amino)-N-(4-sulfamoylphenyl)benzamide]: at jack bean urease [2], the Ki is 3.06 µM, the “Vmax (app)” value came out at 8.62 µM/min and the mode of inhibition entry is “competitively; also recorded: competitive”. The IC50 at jack bean urease [1] worked out at 18.7 ± 0.21 µM. Also, on jack bean urease [1] (jack bean urease), the “% inhibition (urease)” value is on record as 91.6%.
As to `Cc1cccc(Nc2ccccc2C(=O)Nc2ccc(S(=O)(=O)Nc3onc(C)c3C)cc2)c1C` [conjugate 13, N-(4-(N-(3,4-Dimethylisoxazol-5-yl)sulfamoyl)phenyl)-2-((2,3-dimethylphenyl)amino)benzamide], at jack bean urease [2], the inhibition constant Ki came to 4.82 µM, the “Vmax (app)” value is 3.03 µM/min and the mode of inhibition result is “mixed”. At jack bean urease [1], this molecule displayed an IC50 of 15.9 ± 0.25 µM. Also, on jack bean urease [1] (jack bean urease), the “% inhibition (urease)” value worked out at 94.1%.
Take `Cc1cccc(Nc2ccccc2C(=O)Nc2ccc(S(=O)(=O)Nc3nccs3)cc2)c1C` [conjugate 14, 2-((2,3-Dimethylphenyl)amino)-N-(4-(N-(thiazol-2-yl)sulfamoyl)phenyl)benzamide]: on jack bean urease [2], the Ki worked out at 1.65 µM, the “Vmax (app)” value turned out to be 2.28 µM/min and the mode of inhibition entry was “mixed”. Moreover, at jack bean urease [1], it took 14.8 ± 0.27 µM to reach half-maximal inhibition (IC50). In addition, on jack bean urease [1] (jack bean urease), the “% inhibition (urease)” value was determined as 82.9%.
As for `Cc1cccc(Nc2ccccc2C(=O)Nc2ccc(S(=O)(=O)Nc3ncccn3)cc2)c1C` [conjugate 15, 2-((2,3-Dimethylphenyl)amino)-N-(4-(N-(pyrimidin-2-yl)sulfamoyl)phenyl)benzamide], at jack bean urease [2], the Ki was determined as 1.04 µM, the “Vmax (app)” value came out at 6.36 µM/min and the mode of inhibition result is “mixed”. This molecule also had an IC50 at jack bean urease [1] of 7.92 ± 0.27 µM. Besides, the “% inhibition (urease)” value on jack bean urease [1] (jack bean urease) was 84.9%.
In turn, `Cc1ccnc(NS(=O)(=O)c2ccc(NC(=O)c3ccccc3Nc3cccc(C)c3C)cc2)n1` [conjugate 16, 2-((2,3-Dimethylphenyl)amino)-N-(4-(N-(4-methylpyrimidin-2-yl)sulfamoyl)phenyl)benzamide] came in with an IC50 on jack bean urease [1] of 94.99 ± 0.22 µM. Besides, on jack bean urease [1] (jack bean urease), the “% inhibition (urease)” value is on record as 68.3%.
In the case of `Cc1cc(NS(=O)(=O)c2ccc(NC(=O)c3ccccc3Nc3cccc(C)c3C)cc2)no1` [conjugate 17, 2-((2,3-Dimethylphenyl)amino)-N-(4-(N-(5-methylisoxazol-3-yl)sulfamoyl)phenyl)benzamide], at jack bean urease [2], the affinity corresponds to a Ki of 0.46 µM, the “Vmax (app)” value was 8.54 µM/min and the mode of inhibition result is “competitively; also recorded: competitive”. Besides, the IC50 against jack bean urease [1] stood at 8.35 ± 0.26 µM.
`CC(=O)NS(=O)(=O)c1ccc(NC(=O)c2ccccc2Nc2cccc(C)c2C)cc1` [conjugate 18, N-(4-(N-Acetylsulfamoyl)phenyl)-2-((2,3-dimethylphenyl)amino)benzamide] yielded an IC50 against jack bean urease [1] of 36.08 ± 0.28 µM. The “% inhibition (urease)” value at jack bean urease [1] (jack bean urease) came to 64.1%.
On the same counts, the results for `Cc1cccc(Nc2ccccc2C(=O)Nc2ccc(S(=O)(=O)NC(=N)N)cc2)c1C` [conjugate 19, N-(4-(N-Carbamimidoylsulfamoyl)phenyl)-2-((2,3-dimethylphenyl)amino)benzamide] are 31.32 ± 0.29 µM and 79.2%.
Regarding `NC(N)=S` [thiourea, reference compound], on jack bean urease [2], the “Vmax (app)” value is 18.61 µM/min and the mode of inhibition result was “competitive”. Besides, the Ki at jack bean urease [2] (read-out: Ki (inhibition constant), calculated from secondary Lineweaver–Burk plots) is 18.2 µM. Further, the “% inhibition (urease)” value at jack bean urease [1] (jack bean urease) amounted to 92.3%. Moreover, the IC50 on jack bean urease [1] (read-out: IC50 (μM), mean ± SEM, jack bean urease, mean ± SEM) is 22.6 ± 0.23 µM.

Source of the values: paper PMC10702309 (ACS Omega, 2023).
